According to paper PMC7355497 (Pharmaceutics, 2020):
Structures can show the parent of a compound that is named as a salt.

How the values were obtained:
[1] = cited from earlier work
P-gp = P-gp (Homo sapiens, UniProt P08183); conditions: 15 min, 10 μM
Sequence of P-gp (P08183 whole entry): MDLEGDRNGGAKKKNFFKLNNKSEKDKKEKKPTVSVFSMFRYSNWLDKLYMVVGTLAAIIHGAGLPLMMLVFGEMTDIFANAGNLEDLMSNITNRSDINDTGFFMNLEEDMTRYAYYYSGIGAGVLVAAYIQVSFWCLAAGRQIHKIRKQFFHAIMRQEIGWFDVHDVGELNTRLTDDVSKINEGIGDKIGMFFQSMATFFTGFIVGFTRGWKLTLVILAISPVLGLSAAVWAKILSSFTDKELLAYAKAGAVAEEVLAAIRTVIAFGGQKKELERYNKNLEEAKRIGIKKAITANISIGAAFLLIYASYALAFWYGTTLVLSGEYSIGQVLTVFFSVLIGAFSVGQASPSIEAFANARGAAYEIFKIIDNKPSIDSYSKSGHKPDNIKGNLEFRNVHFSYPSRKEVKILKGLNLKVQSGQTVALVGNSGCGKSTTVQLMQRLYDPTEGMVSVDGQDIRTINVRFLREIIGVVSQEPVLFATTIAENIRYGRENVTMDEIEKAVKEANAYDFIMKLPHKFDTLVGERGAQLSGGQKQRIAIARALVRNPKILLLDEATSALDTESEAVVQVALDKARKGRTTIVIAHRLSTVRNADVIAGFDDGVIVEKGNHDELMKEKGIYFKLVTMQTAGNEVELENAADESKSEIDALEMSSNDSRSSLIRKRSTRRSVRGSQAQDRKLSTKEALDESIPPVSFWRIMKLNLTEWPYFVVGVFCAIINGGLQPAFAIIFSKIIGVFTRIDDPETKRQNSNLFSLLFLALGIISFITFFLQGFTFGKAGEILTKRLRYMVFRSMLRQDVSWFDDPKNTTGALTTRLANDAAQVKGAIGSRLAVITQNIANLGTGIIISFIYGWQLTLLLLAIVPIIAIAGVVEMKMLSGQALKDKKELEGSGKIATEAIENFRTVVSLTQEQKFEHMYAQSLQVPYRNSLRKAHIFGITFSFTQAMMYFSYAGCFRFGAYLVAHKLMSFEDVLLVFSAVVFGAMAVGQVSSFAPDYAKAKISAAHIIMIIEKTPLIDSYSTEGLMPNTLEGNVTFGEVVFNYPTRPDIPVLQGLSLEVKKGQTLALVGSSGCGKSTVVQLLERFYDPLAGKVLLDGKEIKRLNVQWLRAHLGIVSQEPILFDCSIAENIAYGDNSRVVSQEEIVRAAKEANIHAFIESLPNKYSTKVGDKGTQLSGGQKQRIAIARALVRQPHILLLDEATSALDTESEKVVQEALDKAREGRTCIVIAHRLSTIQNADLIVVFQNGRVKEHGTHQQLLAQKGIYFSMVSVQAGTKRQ
Protocol: The P-gp inhibition effect of anthraquinones from R. acetosa was evaluated via MDR assay kit using Caco-2 cells. […] The MDR dye-loading solution was added at a volume of 100 μL and incubated. Fluorescence intensity was detected with a microplate reader Synerge H1 (Biotek, Winooski, VT, USA) at a wavelength of 490 nm for the excitation and 525 nm for the emission.

Compound | Fraction of dose excreted into feces as the unchanged form [1] [%] | Fraction of dose excreted into urine as the unchanged form [1] [%] | Fluorescence intensity as percentage of control group (P-gp inhibition) (P-gp)
CC(C)(C(=O)O)c1ccc(C(O)CCCN2CCC(C(O)(c3ccccc3)c3ccccc3)CC2)cc1 (stereo not drawn) [fexofenadine, Fexofenadine hydrochloride] | 80 | 11 | –
Cc1cc(O)c2c(c1)C(=O)c1cc(O)cc(O)c1C2=O [emodin] | – | – | 147.2% ± 12.4
